# From BindingDB's records for doi:10.1111/j.2042-7158.1986.tb04590.x (1986)
# Target: Sigma non-opioid intracellular receptor 1 (Cavia porcellus, UniProt Q60492)
# Sequence (Q60492 whole entry): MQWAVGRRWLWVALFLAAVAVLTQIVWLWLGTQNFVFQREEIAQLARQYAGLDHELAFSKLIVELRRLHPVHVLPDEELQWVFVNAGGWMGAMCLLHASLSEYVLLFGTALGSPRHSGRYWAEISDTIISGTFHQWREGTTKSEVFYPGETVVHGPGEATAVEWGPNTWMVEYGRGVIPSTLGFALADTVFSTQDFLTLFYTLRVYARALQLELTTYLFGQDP
row,Ki,Structure (SMILES)
1,2000 nM,CNCCC=C1c2ccccc2CCc2ccccc21 [NORTRIPTYLINE]
2,1470 nM,CN(C)CCCN1c2ccccc2Sc2ccc(Cl)cc21 [[3-(2-Chloro-phenothiazin-10-yl)-propyl]-dimethyl-amine(Chlorpromazine)]

# The next lines start with the compound.
row,Structure (SMILES),Ki
1,CN(C)CCCN1c2ccccc2CCc2ccccc21,520 nM
2,CN(C)CCC=C1c2ccccc2CCc2ccccc21,300 nM
3,"Clc1cccc(Cl)c1N=C1NCCN1 [2-(2,6-dichloroanilino)-2-imidazoline]",> 10000 nM
4,CN(C)CCCN1c2ccccc2Sc2ccc(C(F)(F)F)cc21 [TRIFLUPROMAZINE],605 nM
